From ChEMBL document CHEMBL5212743, “Selectivity Literature for EUbOPEN Chemogenomics Library wave 3” (2023)
Values belong to the compound of their own block, whether it stands above or below them.

What was measured:
[1] = target: 5-hydroxytryptamine receptor 7 (Homo sapiens, UniProt P34969); assay: Selectivity interaction (GPCR panel (PDSP screen)) EUB0000252b HTR7
[2] = target: High affinity nerve growth factor receptor (Homo sapiens, UniProt P04629); assay: Selectivity interaction (KinomeScan (DiscoverX)) EUB0000714a NTRK1; details: at 100 nM
[3] = target: T1, Dual specificity mitogen-activated protein kinase kinase 5 (Homo sapiens) (UniProt Q13163); assay: Selectivity interaction (KinomeScan (DiscoverX)) EUB0000714a MAP2K5; details: at 100 nM
T1 sequence (whole entry): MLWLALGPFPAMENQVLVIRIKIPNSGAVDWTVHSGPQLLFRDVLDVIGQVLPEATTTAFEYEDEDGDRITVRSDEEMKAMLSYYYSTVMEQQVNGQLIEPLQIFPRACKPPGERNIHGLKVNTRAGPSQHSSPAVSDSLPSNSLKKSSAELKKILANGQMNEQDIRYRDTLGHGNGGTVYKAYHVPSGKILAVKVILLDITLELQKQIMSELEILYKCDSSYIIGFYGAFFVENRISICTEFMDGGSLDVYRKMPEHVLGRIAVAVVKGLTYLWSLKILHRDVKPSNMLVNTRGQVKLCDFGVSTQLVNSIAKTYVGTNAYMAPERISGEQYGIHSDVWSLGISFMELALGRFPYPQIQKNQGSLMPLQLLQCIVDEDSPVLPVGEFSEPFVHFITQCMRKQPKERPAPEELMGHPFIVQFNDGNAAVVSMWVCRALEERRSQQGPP

[4] = target: Dual specificity mitogen-activated protein kinase kinase 3 (Homo sapiens) (UniProt P46734); assay: Selectivity interaction (KinomeScan (DiscoverX)) EUB0000714a MAP2K3; details: at 100 nM
[5] = target: Phosphatidylinositol 4,5-bisphosphate 3-kinase catalytic subunit alpha isoform (Homo sapiens, UniProt P42336); assay: Selectivity interaction (KinomeScan (DiscoverX)) EUB0000714a PIK3CA; details: at 100 nM
Phosphatidylinositol 4,5-bisphosphate 3-kinase catalytic subunit alpha isoform, sequence (P42336 whole entry, canonical isoform): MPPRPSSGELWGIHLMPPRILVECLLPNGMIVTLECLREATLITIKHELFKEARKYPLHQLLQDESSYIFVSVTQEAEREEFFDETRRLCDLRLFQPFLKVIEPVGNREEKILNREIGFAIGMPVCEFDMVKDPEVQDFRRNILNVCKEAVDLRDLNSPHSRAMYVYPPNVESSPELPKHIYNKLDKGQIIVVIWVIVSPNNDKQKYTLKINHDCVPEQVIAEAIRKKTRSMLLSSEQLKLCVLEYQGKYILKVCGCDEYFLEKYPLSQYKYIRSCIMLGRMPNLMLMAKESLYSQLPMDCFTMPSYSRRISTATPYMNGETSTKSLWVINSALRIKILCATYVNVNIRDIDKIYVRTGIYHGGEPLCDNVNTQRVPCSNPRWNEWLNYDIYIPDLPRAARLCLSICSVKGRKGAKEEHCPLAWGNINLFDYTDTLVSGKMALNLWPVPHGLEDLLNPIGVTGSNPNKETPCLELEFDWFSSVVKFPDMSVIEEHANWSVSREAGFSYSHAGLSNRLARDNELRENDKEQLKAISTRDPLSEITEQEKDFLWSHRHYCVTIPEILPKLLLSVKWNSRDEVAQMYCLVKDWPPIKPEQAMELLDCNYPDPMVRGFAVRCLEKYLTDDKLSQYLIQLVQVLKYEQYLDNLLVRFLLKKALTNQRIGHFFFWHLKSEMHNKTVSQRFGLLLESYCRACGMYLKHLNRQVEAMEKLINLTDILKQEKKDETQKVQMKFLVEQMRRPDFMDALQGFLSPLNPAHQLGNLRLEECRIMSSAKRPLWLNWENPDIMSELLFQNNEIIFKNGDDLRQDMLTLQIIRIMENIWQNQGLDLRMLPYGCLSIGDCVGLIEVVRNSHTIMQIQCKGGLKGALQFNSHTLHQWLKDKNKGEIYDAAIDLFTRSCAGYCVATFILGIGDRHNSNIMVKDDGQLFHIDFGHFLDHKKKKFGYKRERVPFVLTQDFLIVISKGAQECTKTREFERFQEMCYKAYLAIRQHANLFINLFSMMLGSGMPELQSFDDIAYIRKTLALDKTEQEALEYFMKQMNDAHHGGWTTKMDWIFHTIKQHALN

Histamine H3 receptor = Histamine H3 receptor (Homo sapiens, UniProt Q9Y5N1); assay: Selectivity interaction (GPCR panel (PDSP screen)) EUB0000714a HRH3
Histamine H3 receptor, sequence (Q9Y5N1 whole entry): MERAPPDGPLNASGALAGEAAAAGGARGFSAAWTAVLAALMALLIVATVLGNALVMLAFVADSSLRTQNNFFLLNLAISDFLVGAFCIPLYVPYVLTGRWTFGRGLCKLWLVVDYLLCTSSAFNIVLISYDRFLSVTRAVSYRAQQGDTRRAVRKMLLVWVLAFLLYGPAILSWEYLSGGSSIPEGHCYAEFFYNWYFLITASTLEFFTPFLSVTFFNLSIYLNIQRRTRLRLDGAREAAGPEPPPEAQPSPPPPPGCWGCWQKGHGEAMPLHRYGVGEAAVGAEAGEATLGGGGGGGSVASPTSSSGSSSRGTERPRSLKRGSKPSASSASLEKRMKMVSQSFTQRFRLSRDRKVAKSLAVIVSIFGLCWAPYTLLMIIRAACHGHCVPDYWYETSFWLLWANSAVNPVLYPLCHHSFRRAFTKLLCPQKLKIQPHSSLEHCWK

Aurora kinase C = Aurora kinase C (Homo sapiens, UniProt Q9UQB9); assay: Selectivity interaction (NanoBRET assay (HEK293T cells)) EUB0000723a AURKC
[6] = system: Tyrosine-protein kinase ABL1 (Homo sapiens), P00519 [T315I]; assay: Selectivity interaction (KinomeScan (DiscoverX)) EUB0000723a ABL1; details: at 1 µM
[7] = target: Tyrosine-protein kinase ABL1 (Homo sapiens, UniProt P00519); assay: Selectivity interaction (NanoBRET assay (HEK293T cells)) EUB0000723a ABL1
[8] = target: T2, Aurora kinase C (Homo sapiens) (UniProt Q9UQB9); assay: Selectivity interaction (KinomeScan (DiscoverX)) EUB0000723a AURKC; details: at 1 µM
T2 sequence (whole entry): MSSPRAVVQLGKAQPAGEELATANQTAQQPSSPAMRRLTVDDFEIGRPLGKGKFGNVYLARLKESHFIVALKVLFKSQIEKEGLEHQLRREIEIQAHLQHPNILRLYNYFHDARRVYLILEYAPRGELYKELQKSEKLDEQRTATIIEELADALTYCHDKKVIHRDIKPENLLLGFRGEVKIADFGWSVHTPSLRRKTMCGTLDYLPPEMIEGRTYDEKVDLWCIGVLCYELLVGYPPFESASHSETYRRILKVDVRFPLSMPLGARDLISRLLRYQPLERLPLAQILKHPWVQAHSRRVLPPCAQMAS

[9] = target: Casein kinase II subunit alpha (Homo sapiens, UniProt P68400); assay: Selectivity interaction (Kinase panel (radiometric kinase assay)) EUB0000677a CSNK2A1
Casein kinase II subunit alpha, sequence (P68400 whole entry): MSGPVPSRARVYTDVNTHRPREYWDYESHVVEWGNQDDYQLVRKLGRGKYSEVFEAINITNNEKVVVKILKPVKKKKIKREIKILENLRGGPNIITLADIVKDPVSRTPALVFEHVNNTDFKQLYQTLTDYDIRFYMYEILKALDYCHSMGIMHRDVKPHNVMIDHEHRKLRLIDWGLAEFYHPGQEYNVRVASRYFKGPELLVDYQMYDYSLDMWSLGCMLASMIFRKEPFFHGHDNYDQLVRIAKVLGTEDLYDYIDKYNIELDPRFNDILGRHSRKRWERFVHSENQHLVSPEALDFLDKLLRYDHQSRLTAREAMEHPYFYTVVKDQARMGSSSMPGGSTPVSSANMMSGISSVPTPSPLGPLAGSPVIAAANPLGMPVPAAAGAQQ

[10] = system: T3, Receptor-type tyrosine-protein kinase FLT3 (Homo sapiens), P36888 [D835Y]; details: at 1 µM
T3 sequence (whole entry): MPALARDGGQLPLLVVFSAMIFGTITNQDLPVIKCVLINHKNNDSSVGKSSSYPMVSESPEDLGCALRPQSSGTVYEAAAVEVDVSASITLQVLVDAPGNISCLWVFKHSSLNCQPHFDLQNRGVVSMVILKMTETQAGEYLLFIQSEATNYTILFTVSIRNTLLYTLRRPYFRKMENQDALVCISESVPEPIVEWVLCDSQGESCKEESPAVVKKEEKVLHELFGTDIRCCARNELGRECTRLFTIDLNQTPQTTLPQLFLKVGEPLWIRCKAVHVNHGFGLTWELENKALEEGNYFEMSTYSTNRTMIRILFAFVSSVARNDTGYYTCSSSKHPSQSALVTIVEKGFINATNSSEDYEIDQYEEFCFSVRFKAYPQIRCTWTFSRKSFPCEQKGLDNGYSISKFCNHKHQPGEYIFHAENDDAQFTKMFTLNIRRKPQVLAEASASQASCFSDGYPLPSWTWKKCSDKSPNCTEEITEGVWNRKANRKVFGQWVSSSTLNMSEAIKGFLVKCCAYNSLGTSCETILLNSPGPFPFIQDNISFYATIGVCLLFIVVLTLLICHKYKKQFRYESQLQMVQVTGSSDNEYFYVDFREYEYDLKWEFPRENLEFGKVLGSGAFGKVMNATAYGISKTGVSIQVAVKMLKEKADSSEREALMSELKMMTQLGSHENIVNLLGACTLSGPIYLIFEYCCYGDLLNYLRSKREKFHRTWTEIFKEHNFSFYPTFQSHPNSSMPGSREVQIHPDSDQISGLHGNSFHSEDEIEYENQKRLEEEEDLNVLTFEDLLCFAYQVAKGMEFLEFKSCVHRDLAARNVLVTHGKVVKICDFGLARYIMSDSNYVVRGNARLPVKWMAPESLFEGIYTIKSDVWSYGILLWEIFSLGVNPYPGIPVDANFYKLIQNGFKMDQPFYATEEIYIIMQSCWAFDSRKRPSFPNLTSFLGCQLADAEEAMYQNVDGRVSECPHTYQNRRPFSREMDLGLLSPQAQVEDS

[11] = target: Cyclin-dependent kinase 9 (Homo sapiens) (UniProt P50750); assay: Selectivity interaction (Kinase Profiler (Millipore)) EUB0000677a CDK9; details: at 1 µM
[12] = target: T4, Serine/threonine-protein kinase PLK1 (Homo sapiens, UniProt P53350); details: at 1 µM
T4 sequence (P53350 whole entry): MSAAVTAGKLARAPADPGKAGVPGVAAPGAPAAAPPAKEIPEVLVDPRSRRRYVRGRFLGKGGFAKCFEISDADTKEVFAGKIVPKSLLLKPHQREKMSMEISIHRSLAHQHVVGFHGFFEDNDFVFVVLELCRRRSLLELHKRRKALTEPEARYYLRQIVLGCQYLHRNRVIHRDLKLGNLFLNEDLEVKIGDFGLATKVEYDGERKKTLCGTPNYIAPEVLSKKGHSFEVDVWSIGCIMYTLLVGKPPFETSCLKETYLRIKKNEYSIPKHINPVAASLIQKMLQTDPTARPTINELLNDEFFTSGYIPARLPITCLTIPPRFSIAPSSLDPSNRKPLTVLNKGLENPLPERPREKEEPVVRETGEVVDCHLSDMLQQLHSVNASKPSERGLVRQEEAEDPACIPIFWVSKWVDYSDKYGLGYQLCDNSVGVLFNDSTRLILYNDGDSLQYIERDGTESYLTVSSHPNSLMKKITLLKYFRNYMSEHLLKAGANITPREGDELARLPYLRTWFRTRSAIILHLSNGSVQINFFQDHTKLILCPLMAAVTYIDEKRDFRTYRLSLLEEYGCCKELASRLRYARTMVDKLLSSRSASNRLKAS

[13] = target: T5, Gamma-aminobutyric acid receptor subunit alpha-1 (Homo sapiens, UniProt P14867); assay: Selectivity interaction (GPCR panel (PDSP screen)) EUB0000316b GABRA1
T5 sequence (P14867 whole entry): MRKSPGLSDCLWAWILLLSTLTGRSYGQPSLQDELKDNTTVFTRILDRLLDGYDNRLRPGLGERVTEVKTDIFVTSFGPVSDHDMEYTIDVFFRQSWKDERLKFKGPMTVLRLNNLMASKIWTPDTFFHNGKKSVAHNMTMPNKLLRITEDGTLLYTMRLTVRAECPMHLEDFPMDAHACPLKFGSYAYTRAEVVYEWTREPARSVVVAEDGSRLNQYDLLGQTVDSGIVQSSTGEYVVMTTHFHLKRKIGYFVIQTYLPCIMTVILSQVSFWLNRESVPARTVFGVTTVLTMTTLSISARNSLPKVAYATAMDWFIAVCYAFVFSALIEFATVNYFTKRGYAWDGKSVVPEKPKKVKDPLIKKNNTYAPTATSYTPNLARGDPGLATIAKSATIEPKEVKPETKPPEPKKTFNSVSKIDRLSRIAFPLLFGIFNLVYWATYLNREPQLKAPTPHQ

[14] = target: Mitogen-activated protein kinase kinase kinase 14 (Homo sapiens) (UniProt Q99558); assay: Selectivity interaction (KinomeScan (DiscoverX)) EUB0000316b MAP3K14; details: at 1 µM
[15] = target: Mitogen-activated protein kinase 8 (Homo sapiens, UniProt P45983); assay: Selectivity interaction (KinomeScan (DiscoverX)) EUB0000316b MAPK8; details: at 1 µM
Mitogen-activated protein kinase 8, sequence (P45983 whole entry): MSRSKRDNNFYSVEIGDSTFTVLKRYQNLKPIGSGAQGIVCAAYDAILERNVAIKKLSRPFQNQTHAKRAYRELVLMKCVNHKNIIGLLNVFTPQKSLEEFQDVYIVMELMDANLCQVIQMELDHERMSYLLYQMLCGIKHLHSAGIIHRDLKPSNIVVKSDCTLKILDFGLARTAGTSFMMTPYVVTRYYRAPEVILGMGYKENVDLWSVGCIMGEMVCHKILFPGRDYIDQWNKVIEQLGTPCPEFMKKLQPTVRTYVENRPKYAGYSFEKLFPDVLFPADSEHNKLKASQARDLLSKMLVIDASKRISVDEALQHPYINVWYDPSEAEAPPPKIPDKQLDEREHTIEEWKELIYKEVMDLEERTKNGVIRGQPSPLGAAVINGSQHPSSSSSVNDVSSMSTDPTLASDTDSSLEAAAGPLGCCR

[16] = target: T6, Receptor-interacting serine/threonine-protein kinase 4 (Homo sapiens) (UniProt P57078); assay: Selectivity interaction (KinomeScan (DiscoverX)) EUB0000316b RIPK4; details: at 1 µM
T6 sequence (whole entry): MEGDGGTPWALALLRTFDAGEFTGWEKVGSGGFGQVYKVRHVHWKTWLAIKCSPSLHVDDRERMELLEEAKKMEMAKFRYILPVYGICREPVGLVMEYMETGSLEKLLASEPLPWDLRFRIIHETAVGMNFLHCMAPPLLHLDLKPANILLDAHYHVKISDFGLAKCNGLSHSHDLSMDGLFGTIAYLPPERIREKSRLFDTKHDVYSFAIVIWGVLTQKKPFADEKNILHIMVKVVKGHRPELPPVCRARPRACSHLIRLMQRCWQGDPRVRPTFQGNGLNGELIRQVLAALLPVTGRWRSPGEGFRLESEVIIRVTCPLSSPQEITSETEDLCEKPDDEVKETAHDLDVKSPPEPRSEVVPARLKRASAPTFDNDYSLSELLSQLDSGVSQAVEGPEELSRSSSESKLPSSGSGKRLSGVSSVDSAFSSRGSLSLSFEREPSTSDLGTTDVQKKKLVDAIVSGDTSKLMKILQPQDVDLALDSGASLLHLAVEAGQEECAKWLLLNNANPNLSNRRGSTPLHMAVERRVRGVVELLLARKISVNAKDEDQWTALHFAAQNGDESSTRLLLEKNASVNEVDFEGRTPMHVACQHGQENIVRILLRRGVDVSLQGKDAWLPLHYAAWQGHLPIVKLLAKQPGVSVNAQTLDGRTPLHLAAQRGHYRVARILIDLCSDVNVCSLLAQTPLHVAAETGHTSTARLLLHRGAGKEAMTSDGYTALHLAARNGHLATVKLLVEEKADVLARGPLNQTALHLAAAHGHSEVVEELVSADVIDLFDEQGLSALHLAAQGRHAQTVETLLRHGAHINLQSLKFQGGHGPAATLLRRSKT

[17] = target: T7, Alpha-2C adrenergic receptor (Homo sapiens, UniProt P18825); assay: Selectivity interaction (GPCR panel (PDSP screen)) EUB0000316b ADRA2C
T7 sequence (P18825 whole entry): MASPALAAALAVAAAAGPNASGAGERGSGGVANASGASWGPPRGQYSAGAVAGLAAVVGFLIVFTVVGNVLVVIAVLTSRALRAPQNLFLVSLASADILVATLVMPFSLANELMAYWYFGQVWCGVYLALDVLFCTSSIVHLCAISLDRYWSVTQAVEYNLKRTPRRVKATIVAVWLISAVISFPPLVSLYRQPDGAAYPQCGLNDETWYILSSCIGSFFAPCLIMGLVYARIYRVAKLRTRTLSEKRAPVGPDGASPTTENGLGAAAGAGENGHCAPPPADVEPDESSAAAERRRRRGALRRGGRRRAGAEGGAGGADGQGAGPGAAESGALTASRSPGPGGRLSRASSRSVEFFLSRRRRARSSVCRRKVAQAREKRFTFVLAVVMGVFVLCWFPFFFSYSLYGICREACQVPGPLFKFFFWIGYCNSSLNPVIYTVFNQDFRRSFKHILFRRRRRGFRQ

[18] = target: Cyclin-dependent kinase 4 (Homo sapiens) (UniProt P11802); assay: Selectivity interaction (KinomeScan (DiscoverX)) EUB0000316b CDK4; details: at 1 µM
Cyclin-dependent kinase 4 (Homo sapiens), sequence (P11802 whole entry): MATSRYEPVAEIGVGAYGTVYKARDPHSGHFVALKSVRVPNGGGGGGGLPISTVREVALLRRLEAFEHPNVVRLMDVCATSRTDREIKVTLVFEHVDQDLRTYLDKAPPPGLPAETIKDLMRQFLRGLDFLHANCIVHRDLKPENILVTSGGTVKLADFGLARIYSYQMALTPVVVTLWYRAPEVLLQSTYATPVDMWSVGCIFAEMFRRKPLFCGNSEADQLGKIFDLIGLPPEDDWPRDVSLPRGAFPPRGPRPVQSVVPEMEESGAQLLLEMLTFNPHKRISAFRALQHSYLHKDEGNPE

[19] = target: Serine/threonine-protein kinase WNK2 (Homo sapiens) (UniProt Q9Y3S1); assay: Selectivity interaction (KinomeScan (DiscoverX)) EUB0000316b WNK2; details: at 1 µM
[20] = target: T5, Gamma-aminobutyric acid receptor subunit alpha-1; assay: Selectivity interaction (GPCR panel (PDSP screen)) EUB0000704a GABRA1
[21] = target: Protein kinase C alpha type (Homo sapiens) (UniProt P17252); assay: Selectivity interaction (KinomeScan (DiscoverX)) EUB0000704a PRKCA; details: at 1 µM
[22] = target: Serine/threonine-protein kinase WNK4 (Homo sapiens) (UniProt Q96J92); assay: Selectivity interaction (KinomeScan (DiscoverX)) EUB0000704a WNK4; details: at 1 µM
Serine/threonine-protein kinase WNK4 (Homo sapiens), sequence (Q96J92 whole entry): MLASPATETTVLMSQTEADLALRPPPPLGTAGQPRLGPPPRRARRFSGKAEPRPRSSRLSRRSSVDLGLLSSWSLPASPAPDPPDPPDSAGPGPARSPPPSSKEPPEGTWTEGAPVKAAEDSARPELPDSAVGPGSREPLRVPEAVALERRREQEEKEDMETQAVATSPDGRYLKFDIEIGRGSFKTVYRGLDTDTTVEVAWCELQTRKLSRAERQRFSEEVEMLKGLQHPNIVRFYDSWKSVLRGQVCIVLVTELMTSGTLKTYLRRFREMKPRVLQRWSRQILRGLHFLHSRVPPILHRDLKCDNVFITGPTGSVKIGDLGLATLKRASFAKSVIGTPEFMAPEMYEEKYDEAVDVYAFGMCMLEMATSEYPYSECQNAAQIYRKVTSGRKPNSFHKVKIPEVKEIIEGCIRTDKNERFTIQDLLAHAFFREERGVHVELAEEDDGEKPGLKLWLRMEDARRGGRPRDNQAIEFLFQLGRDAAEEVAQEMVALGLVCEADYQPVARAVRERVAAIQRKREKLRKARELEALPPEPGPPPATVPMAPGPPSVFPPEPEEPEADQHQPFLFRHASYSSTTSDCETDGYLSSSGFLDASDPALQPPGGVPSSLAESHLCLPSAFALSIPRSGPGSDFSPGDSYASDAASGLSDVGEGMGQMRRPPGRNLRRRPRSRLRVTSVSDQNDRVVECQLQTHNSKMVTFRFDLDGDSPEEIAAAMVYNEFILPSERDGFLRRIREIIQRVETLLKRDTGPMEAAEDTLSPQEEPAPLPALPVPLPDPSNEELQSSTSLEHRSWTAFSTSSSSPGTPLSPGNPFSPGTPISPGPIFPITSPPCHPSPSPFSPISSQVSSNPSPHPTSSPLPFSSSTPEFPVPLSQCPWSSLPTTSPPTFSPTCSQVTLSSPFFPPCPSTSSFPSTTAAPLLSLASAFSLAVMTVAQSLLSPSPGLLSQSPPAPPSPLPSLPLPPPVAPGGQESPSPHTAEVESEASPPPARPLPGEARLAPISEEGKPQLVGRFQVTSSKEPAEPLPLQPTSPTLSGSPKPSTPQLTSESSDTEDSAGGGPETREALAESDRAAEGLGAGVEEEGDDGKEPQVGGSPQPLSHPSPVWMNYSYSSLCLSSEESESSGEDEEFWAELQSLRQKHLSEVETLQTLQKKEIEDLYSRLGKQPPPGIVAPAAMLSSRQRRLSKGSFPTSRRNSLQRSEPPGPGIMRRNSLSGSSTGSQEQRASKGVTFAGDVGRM

[23] = target: Mitogen-activated protein kinase 10 (Homo sapiens, UniProt P53779); assay: Selectivity interaction (KinomeScan (DiscoverX)) EUB0000704a MAPK10; details: at 1 µM
Mitogen-activated protein kinase 10, sequence (P53779 whole entry): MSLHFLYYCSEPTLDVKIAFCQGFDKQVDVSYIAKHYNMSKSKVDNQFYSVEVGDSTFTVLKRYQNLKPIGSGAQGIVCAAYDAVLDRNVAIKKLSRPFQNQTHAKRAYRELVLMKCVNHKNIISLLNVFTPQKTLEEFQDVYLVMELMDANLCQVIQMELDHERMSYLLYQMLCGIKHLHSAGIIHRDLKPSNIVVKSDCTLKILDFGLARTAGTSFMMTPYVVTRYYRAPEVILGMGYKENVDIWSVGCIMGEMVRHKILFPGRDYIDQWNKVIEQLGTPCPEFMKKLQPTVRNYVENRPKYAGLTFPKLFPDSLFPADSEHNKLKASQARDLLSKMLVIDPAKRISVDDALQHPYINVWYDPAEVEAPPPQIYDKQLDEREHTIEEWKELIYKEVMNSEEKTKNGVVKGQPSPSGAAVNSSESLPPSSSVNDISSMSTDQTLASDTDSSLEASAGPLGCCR

[24] = target: Sodium-dependent dopamine transporter (Homo sapiens, UniProt Q01959); assay: Selectivity interaction (GPCR panel (PDSP screen)) EUB0000704a SLC6A3
[25] = target: Serine/threonine-protein kinase WNK3 (Homo sapiens) (UniProt Q9BYP7); assay: Selectivity interaction (KinomeScan (DiscoverX)) EUB0000704a WNK3; details: at 1 µM
[26] = target: T4, Serine/threonine-protein kinase PLK1; assay: Selectivity interaction (KinomeScan (DiscoverX)) EUB0000704a PLK1; details: at 1 µM

Compound: N#CC1(c2ccccn2)CCN(Cc2cc(C(=O)O)c(=O)n3ccccc23)CC1 [MSD-M1PAM]
Ki [1]: > 10 µM

Compound: Cc1cc(Nc2nccc(C)n2)cc(-c2cnc([C@@]3(O)CC[C@H](C(=O)O)C(C)(C)C3)s2)c1 [MRL-SYKi]
% of control [2]: 30.2%
% of control [3]: 25.2%
% of control [4]: 29.5%
% of control [5]: 14.7%
Ki (Histamine H3 receptor): > 10 µM

Compound: O=C(NCCCN1CCOC1=O)c1cnc(NCc2cc(Br)ccc2Br)nc1NC1CCCC1
IC50 (Aurora kinase C): > 10 µM
% of control [6]: 100%
IC50 [7]: > 10 µM
% of control [8]: 100%

Next, values leading:

IC50 [9]: 0.826 µM
% of control [10]: 9%
% of control [11]: 10%
% of control [12]: 3%
Compound: CN1CCN(c2ccc(OC(F)(F)F)c(Nc3ncc4c(n3)-c3c(c(C(N)=O)nn3CCO)CC4)c2)CC1 [ONVANSERTIB]

Ki [13]: 1.67 µM
% of control [14]: 63%
% of control [15]: 63%
% of control [16]: 61%
Ki [17]: > 10 µM
% of control [18]: 63%
% of control [19]: 62%
Compound: CC(=O)c1c(NS(C)(=O)=O)c2cc(-c3ccc(Cl)cc3)c(-c3ccc(Cl)cc3Cl)nc2n(C)c1=O [MRL-CB1-NC]

Ki [20]: 0.774 µM
% of control [21]: 33%
% of control [22]: 32%
% of control [23]: 38%
Ki [24]: > 10 µM
% of control [25]: 0%
% of control [26]: 20%
Compound: Cc1ccc(-c2cnc([C@@]3(O)CC[C@H](C(=O)O)C(C)(C)C3)s2)cc1Nc1cccc(C(F)(F)F)n1 [MRL-SYKi-NC]
